According to ChEMBL document CHEMBL5335777 (Eur J Med Chem, 2023):
Each block holds one compound with its values, some of them ahead of it. Active and inactive are the calls of the source. The rule behind the calls is not given here.

Tests used:
SW1573 = test: Antiproliferative activity against human SW1573 cells harboring homozygous KRAS G12C mutant assessed as inhibition of cell growth incubated for 72 hrs by MTT assay; format: functional, cell-based; conditions: SW1573, 72 h
A549 = test: Antiproliferative activity against human A549 cells harboring homozygous KRAS G12S mutant assessed as inhibition of cell growth incubated for 72 hrs by MTT assay; format: functional, cell-based; conditions: A549, 72 h
[1] = test system: GTPase KRas (Homo sapiens), P01116 [G12C]; test: Covalent binding affinity to GDP-bound human KRAS-4B G12C mutant (1 to 169 residues) expressed in Escherichia coli BL21 Rosetta cells at 200 uM measured after 4 hrs by Ellman's assay
[2] = Cmax in NOD-SCID mouse at 15 mg/kg, ip administered as single dose and measured upto 48 hrs by HPLC/MS analysis; format: ADME, organism-based; design: time < 48 hrs, dose 15 mg/kg, route ip; conditions: in vivo
[3] = test system: GTPase KRas (Homo sapiens), P01116 [G12C]; test: Covalent binding affinity to GDP-bound human KRAS-4B G12C mutant (1 to 169 residues) expressed in Escherichia coli BL21 Rosetta cells assessed as reduction in free Cys residues at 200 uM measured after 1 hr by Ellman's assay
LCLC-103H cell line [4] = test: Antiproliferative activity against human LCLC-103H cells harboring wild type KRAS assessed as inhibition of cell growth incubated for 72 hrs by MTT assay; format: functional, cell-based
PANC-1 = test: Antiproliferative activity against human PANC-1 cells harboring heterozygous KRAS G12D mutant assessed as inhibition of cell growth incubated for 72 hrs by MTT assay; format: functional, cell-based; conditions: PANC-1, 72 h
[5] = Cytotoxicity against HUVEC cells immortalized with TERT assessed as inhibition of cell growth incubated for 72 hrs by MTT assay; format: toxicity, cell-based; conditions: human
[6] = (§1) Toxicity in immunodeficient NOD-SCID mouse xenografted with human LCLC-103H cells harboring wild type KRAS assessed as body weight at 5 to 30 mg/kg, ip administered for 5 times at 5 mg/kg in first week followed by administration at 20 mg/kg 5 times in second week and further administered 30 mg/kg 3 times in third week measured 17 days post treatment initiation and 35 days post tumor transplantation (reference value: 2.6 g); format: organism-based; conditions: in vivo, 408 h, dose 5-30 mg/kg, time 17 day
NCI-H358 = test: Antiproliferative activity against human NCI-H358 cells harboring heterozygous KRAS G12C mutant assessed as inhibition of cell growth incubated for 72 hrs by MTT assay; format: functional, cell-based; conditions: NCI-H358, 72 h
[7] = test system: GTPase KRas (Homo sapiens), P01116 [G12C]; test: Binding affinity to Cys118 residue of GDP bound human KRAS-4B G12C mutant (1 to 169 residues) expressed in Escherichia coli BL21 Rosetta cells at 150 to 500 uM measured after 96 hrs by 1H-15N HSQC NMR spectral analysis; conditions: dose 150-500 µM
[8] = Half life in NOD-SCID mouse at 15 mg/kg, ip administered as single dose and measured upto 48 hrs by HPLC/MS analysis; format: ADME, organism-based; conditions: in vivo
[9] = test system: GTPase KRas (Homo sapiens), P01116 [G12C]; test: Covalent binding affinity to GDP-bound human KRAS-4B G12C mutant (1 to 169 residues) expressed in Escherichia coli BL21 Rosetta cells at 200 uM measured after 1 hr by Ellman's assay
[10] = Antiproliferative activity against human HCA-7 cells harboring wild type KRAS assessed as inhibition of cell growth incubated for 72 hrs by MTT assay; format: functional, cell-based, HCA7; conditions: HCA-7, 72 h
MIA PaCa-2 = test: Antiproliferative activity against human MIA PaCa-2 cells harboring homozygous KRAS G12C mutant assessed as inhibition of cell growth incubated for 72 hrs by MTT assay; format: functional, cell-based; conditions: MIA PaCa-2, 72 h
[11] = as §1, with “NCI-H1792” for “LCLC-103H”, “harboring” for “harboring wild type”, “KRAS G12C mutant” for “KRAS”, “20” for “17”, “38” for “35”, “6.6” for “2.6”; format: organism-based; conditions: in vivo, 480 h, dose 5-30 mg/kg, time 20 day
[12] = test system: GTPase KRas (Homo sapiens), P01116 [G12C]; test: Binding affinity to Cys51 residue of GDP bound human KRAS-4B G12C mutant (1 to 169 residues) expressed in Escherichia coli BL21 Rosetta cells at 150 to 500 uM measured after 96 hrs by 1H-15N HSQC NMR spectral analysis; conditions: dose 150-500 µM
[13] = Cytotoxicity against human MRC5 cells assessed as inhibition of cell growth incubated for 72 hrs by MTT assay; format: toxicity, cell-based
LCLC-103H cell line [14] = test: Antitumor activity against human LCLC-103H cells harboring wild type KRAS xenografted in immunodeficient NOD-SCID mouse assessed as tumor volume at 5 to 30 mg/kg, ip administered for 5 times at 5 mg/kg in first week followed by administration at 20 mg/kg 5 times in second week and further administered 30 mg/kg 3 times in third week measured 17 days post treatment initiation and 35 days post tumor transplantation by digital caliper based analysis; format: functional; conditions: dose 5-30 mg/kg, time 17 day
NCI-H1792 [15] = test: Antiproliferative activity against human NCI-H1792 cells harboring heterozygous KRAS G12C mutant assessed as inhibition of cell growth incubated for 72 hrs by MTT assay; format: functional, cell-based; conditions: NCI-H1792, 72 h
[16] = Tmax in NOD-SCID mouse at 15 mg/kg, ip administered as single dose and measured upto 48 hrs by HPLC/MS analysis; format: ADME, organism-based; conditions: in vivo
BXPC-3 = test: Antiproliferative activity against human BXPC-3 cells harboring wild type KRAS assessed as inhibition of cell growth incubated for 72 hrs by MTT assay; format: functional, cell-based; conditions: BXPC-3, 72 h
NCI-H1792 [17] = test: Antiproliferative activity against human NCI-H1792 cells harboring KRAS G12C mutant assessed as cell viability at 25 uM incubated for 72 hrs by MTT assay relative to control; format: functional; conditions: read-out: Activity
[18] = as §1, with “NCI-H1792” for “LCLC-103H”, “harboring” for “harboring wild type”, “KRAS G12C mutant” for “KRAS”, “6.6” for “2.6”; format: organism-based; conditions: in vivo, 408 h, dose 5-30 mg/kg, time 17 day
SW480 = test: Antiproliferative activity against human SW480 cells harboring homozygous KRAS G12V mutant assessed as inhibition of cell growth incubated for 72 hrs by MTT assay; format: functional, cell-based; conditions: SW480, 72 h
[19] = test system: GTPase KRas (Homo sapiens), P01116 [G12C]; test: Covalent binding affinity to GDP-bound human KRAS-4B G12C mutant (1 to 169 residues) expressed in Escherichia coli BL21 Rosetta cells assessed as labelling on Cys12 residue by intact LCMS analysis
[20] = test system: GTPase KRas (Homo sapiens), P01116 [G12C]; test: Binding affinity to Cys12 residue of GDP bound human KRAS-4B G12C mutant (1 to 169 residues) expressed in Escherichia coli BL21 Rosetta cells at 150 to 500 uM measured after 96 hrs by 1H-15N HSQC NMR spectral analysis; conditions: dose 150-500 µM
NCI-H1792 [21] = test: Antiproliferative activity against human NCI-H1792 cells harboring KRAS G12C mutant assessed as reduction in cell viability at 2.5 uM incubated for 72 hrs by MTT assay; format: functional, cell-based
[22] = test system: GTPase KRas (Homo sapiens), P01116 [G12C]; test: Binding affinity to Cys80 residue of GDP bound human KRAS-4B G12C mutant (1 to 169 residues) expressed in Escherichia coli BL21 Rosetta cells at 150 to 500 uM measured after 96 hrs by 1H-15N HSQC NMR spectral analysis; conditions: dose 150-500 µM
NCI-H1792 [23] = test: Antitumor activity against human NCI-H1792 cells harboring KRAS G12C mutant xenografted in immunodeficient NOD-SCID mouse assessed as reduction in tumor growth at 5 to 30 mg/kg, ip administered for 5 times at 5 mg/kg in first week followed by administration at 20 mg/kg 5 times in second week and further administered 30 mg/kg 3 times in third week measured 17 days post treatment initiation and 35 days post tumor transplantation by digital caliper based analysis relative to control; format: functional; design: scale not given: the % may be the effect or the level left; conditions: dose 5-30 mg/kg, time 17 day
[24] = Clearance in NOD-SCID mouse at 15 mg/kg, ip administered as single dose and measured upto 48 hrs by HPLC/MS analysis; format: ADME, organism-based; conditions: in vivo
[25] = Cytotoxicity against human CCD-986Sk cells assessed as inhibition of cell growth incubated for 72 hrs by MTT assay; format: toxicity, cell-based
[26] = AUCt in NOD-SCID mouse at 15 mg/kg, ip administered as single dose and measured upto 48 hrs by HPLC/MS analysis; format: ADME, organism-based; design: dose 15 mg/kg, time < 48 hrs, route ip; conditions: in vivo
[27] = Volume of distribution in NOD-SCID mouse at 15 mg/kg, ip administered as single dose and measured upto 48 hrs by HPLC/MS analysis; format: ADME, organism-based; conditions: in vivo
[28] = Selectivity ratio of IC50 for human LCLC-103H cells harboring wild type KRAS to IC50 for human SW1573 cells harboring homozygous KRAS G12C mutant; format: functional
Homo sapiens [29] = species on record: Homo sapiens; test: Inhibition of GDP-bound human KRAS 149stop G12C mutant expressed in Escherichia coli BL21 Rosetta cells assessed as inhibition of SOS1 mediated nucleotide exchange at 250 uM measured after 24 hrs by fluorescence based analysis
[30] = Selectivity ratio of IC50 for human LCLC-103H cells harboring wild type KRAS to IC50 for human NCI-H1792 cells harboring […] KRAS G12C mutant; format: functional
Homo sapiens [31] = species on record: Homo sapiens; test: Inhibition of GDP-bound human KRAS 149stop G12C mutant expressed in Escherichia coli BL21 Rosetta cells assessed as inhibition of EDTA mediated nucleotide exchange at 250 uM measured after 24 hrs by fluorescence based analysis
[32] = Selectivity ratio of IC50 for human MRC5 cells to IC50 for human SW1573 cells harboring homozygous KRAS G12C mutant; format: toxicity; conditions: MRC5 cells versus SW1573 cells (homozygous KRAS G12C mutant), read-out: Ratio IC50
Homo sapiens [33] = species on record: Homo sapiens; test: Selectivity ratio of IC50 for human MRC5 cells to IC50 for human MIA PaCa-2 cells harboring homozygous KRAS G12C mutant
Homo sapiens [34] = species on record: Homo sapiens; test: Selectivity ratio of IC50 for human MRC5 cells to IC50 for human NCI-H358 cells harboring heterozygous KRAS G12C mutant
[35] = Selectivity ratio of IC50 for human LCLC-103H cells harboring wild type KRAS to IC50 for human NCI-H358 cells harboring heterozygous KRAS G12C mutant; format: functional
[36] = Selectivity ratio of IC50 for human BXPC-3 cells harboring wild type KRAS to IC50 for human MIA PaCa-2 cells harboring homozygous KRAS G12C mutant; format: functional
Homo sapiens [37] = species on record: Homo sapiens; test: Selectivity ratio of IC50 for human MRC5 cells to IC50 for human NCI-H1792 cells harboring homozygous KRAS G12C mutant
[38] = Selectivity ratio of IC50 for human LCLC-103H cells harboring wild type KRAS to IC50 for human A549 cells harboring homozygous KRAS G12S mutant; format: functional
[39] = Selectivity ratio of IC50 for human BXPC-3 cells harboring wild type KRAS to IC50 for human PANC-1 cells harboring heterozygous KRAS G12D mutant; format: functional

IC50 (SW1573): 23.6 µM | IC50 (A549): 44.4 µM | Activity [1]: 50% | Cmax [2]: 337 ng/mL | Activity [3]: Active | IC50 (PANC-1): 38 µM | IC50 (NCI-H358): 16.9 µM | Activity [7]: inactive | half-life [8]: 4.4 h | Activity [9]: Active | IC50 (MIA PaCa-2): 13.7 µM | Activity [12]: inactive | IC50 (NCI-H1792 [15]): 11 µM | Tmax [16]: 0.25 h | IC50 (BXPC-3): 13.1 µM | IC50 (SW480): 14.8 µM | Activity [19]: Active | Activity [20]: Active | Activity [22]: inactive | CL/F [24]: 31.6 mL/min | AUC(0-t) at 48 h [26]: 169 ng·h/mL | Vd [27]: 12096 mL
SMILES: O=C1Nc2cc(Cl)cc(Cl)c2C1=O
IC50 (LCLC-103H cell line [4]): 30 µM | IC50 at 72 h [5]: 24.4 µM | Activity [6]: 2.8 g | IC50 [10]: 9.8 µM | Activity [11]: 9.1 g | IC50 at 72 h [13]: 47.9 µM | Activity (LCLC-103H cell line [14]): 13.3 mm3 | viability at 25 µM (NCI-H1792 [17]): < 50% | Activity [18]: 6.9 g | Activity (NCI-H1792 [21]): Active | Activity (NCI-H1792 [23]): 35.8% | IC50 at 72 h [25]: 42.7 µM

IC50 (SW1573): 25.9 µM | IC50 (A549): 35.2 µM | IC50 (PANC-1): 58.2 µM | IC50 (NCI-H358): 6.9 µM | IC50 (MIA PaCa-2): 5.8 µM | Ratio IC50 (Homo sapiens [33]): 13 | Ratio IC50 (Homo sapiens [34]): 11 | IC50 (NCI-H1792 [15]): 27.9 µM | IC50 (BXPC-3): 36.8 µM | Ratio IC50 (Homo sapiens [37]): 2.7 | IC50 (SW480): 27.8 µM
SMILES: C=CC(=O)N1CC(N2CCN(C(=O)CNc3cc(C4(C)CC4)c(Cl)cc3O)CC2)C1
Ratio IC50 [28]: 1.6 | inhibition (Homo sapiens [29]): Active | IC50 (LCLC-103H cell line [4]): 41.5 µM | Ratio IC50 [30]: 1.5 | inhibition (Homo sapiens [31]): Active | selectivity ratio [32]: 2.9 | IC50 at 72 h [13]: 75.3 µM | Ratio IC50 [35]: 6 | Ratio IC50 [36]: 6.4 | viability at 25 µM (NCI-H1792 [17]): < 50% | Ratio IC50 [38]: 1.2 | Ratio IC50 [39]: 0.6 | Activity (NCI-H1792 [21]): Active
